Experimental data: PubChem BioAssay (NCI)
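Five concentrations, 48 hours, 96-well plates. Here, GI50 denotes the concentration required for 50% inhibition of growth. TGI marks complete inhibition of growth.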

How the values were obtained:
Experiment in all cases: growth of human tumour cells (NCI), 48 h
[1] = tested on: DU-145 prostate
[2] = tested on: SW-620 colon
[3] = tested on: SK-OV-3 ovarian
[4] = tested on: NCI/ADR-RES ovarian
[5] = tested on: HCT-15 colon
[6] = tested on: A498 renal
[7] = tested on: SK-MEL-5 melanoma
[8] = tested on: SNB-19 CNS
[9] = tested on: OVCAR-5 ovarian
[10] = tested on: A549 NSCLC
[11] = tested on: MOLT-4 leukemia
[12] = tested on: OVCAR-4 ovarian
[13] = tested on: HOP-62 NSCLC
[14] = tested on: COLO 205 colon
[15] = tested on: M14 melanoma
[16] = tested on: HT29 colon
[17] = tested on: HL-60(TB) leukemia
[18] = tested on: SF-539 CNS
[19] = tested on: SN12C renal
[20] = tested on: CAKI-1 renal
[21] = tested on: HCC-2998 colon
[22] = tested on: HS 578T breast
[23] = tested on: TK-10 renal
[24] = tested on: NCI-H226 lung
[25] = tested on: OVCAR-8 ovarian
[26] = tested on: RXF 393 renal
[27] = tested on: RPMI-8226 leukemia
[28] = tested on: SR leukemia
[29] = tested on: SNB-75 CNS

## CC(=O)N1CCN(CCNC(=O)n2cc(-c3ccncc3)c(-c3cc(O)cc(Cl)c3)n2)CC1
[1]
  GI50: 24.3 µM
  TGI: > 100 µM
[2]
  GI50: 10.9 µM
  TGI: 26.9 µM
[3]
  GI50: 12.4 µM
  TGI: 25.4 µM
[4]
  GI50: 22.1 µM
  TGI: > 100 µM
[5]
  GI50: 4.25 µM
  TGI: 22.2 µM
[6]
  GI50: 11.7 µM
  TGI: 28.3 µM
[7]
  GI50: 3.66 µM
  TGI: 16.9 µM
[8]
  GI50: 21.4 µM
  TGI: 78.6 µM
[9]
  GI50: 23.8 µM
  TGI: 63.2 µM
[10]
  GI50: 15.1 µM
  TGI: 38.7 µM
[11]
  GI50: 10.4 µM
  TGI: 49.2 µM
[12]
  GI50: 27.8 µM
  TGI: > 100 µM
[13]
  GI50: 16.7 µM
  TGI: 32.6 µM
[14]
  GI50: 6.26 µM
  TGI: 20.9 µM
[15]
  GI50: 1.23 µM
  TGI: 4.87 µM
[16]
  GI50: 3.28 µM
  TGI: 11.9 µM
[17]
  GI50: 7.79 µM
  TGI: 29 µM
[18]
  GI50: 5.73 µM
  TGI: 21.1 µM
[19]
  GI50: 13.7 µM
  TGI: 46.2 µM
[20]
  GI50: 13 µM
  TGI: 38.1 µM
[21]
  GI50: 17.2 µM
  TGI: 32.2 µM
[22]
  GI50: 16.7 µM
  TGI: 53.4 µM
[23]
  GI50: 21.8 µM
  TGI: 50.1 µM
[24]
  GI50: 16.7 µM
  TGI: 40.5 µM
[25]
  GI50: 12.2 µM
  TGI: > 100 µM
[26]
  GI50: 3.67 µM
  TGI: 17.7 µM
[27]
  GI50: 4.69 µM
  TGI: 23.4 µM
[28]
  GI50: 4.78 µM
  TGI: 22.5 µM
[29]
  GI50: 13.5 µM
